The source of these data is patent publication US8916555B2, “3,5-diaminopyrazole kinase inhibitors” (Axikin Pharmaceuticals, Inc., priority 2012, dated 2014).

The target in series [1] is T1, kinase domain protein of RC kinase (Homo sapiens, UniProt Q56UN5).
T1 sequence (Q56UN5 1061-1324 limits assumed): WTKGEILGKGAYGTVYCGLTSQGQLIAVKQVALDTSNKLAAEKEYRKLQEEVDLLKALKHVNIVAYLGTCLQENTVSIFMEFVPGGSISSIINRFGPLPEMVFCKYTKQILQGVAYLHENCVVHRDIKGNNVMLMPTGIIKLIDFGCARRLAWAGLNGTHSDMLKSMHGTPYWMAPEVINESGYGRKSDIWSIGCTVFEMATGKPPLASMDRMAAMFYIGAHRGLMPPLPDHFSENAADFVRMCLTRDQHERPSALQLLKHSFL
The series can be described thus: Enzymatic assay for kinase inhibitory activity (Crebtide substrate, LANCE readout), kinase domain protein. The format is biochemical. The note with it: test compound 1 μM, ATP 1 μM, Crebtide 50 nM. Here is the method: Solutions of a test compound, Crebtide (a substrate), a kinase, and ATP were prepared using 1×MAPK Buffer (50 mM HEPES, 1 mM EGTA, […], 10 mM MgCl2, 2 mM DTT, and 0.01% Tween 20).
To each well, the test compound (1 μL) was first added (in duplicate) to reach a final concentration of 1 μM or 1×IC50 of the compound. The kinase (5 μL) was then added to each well to reach a final concentration of […] for the kinase domain or […] for the full-length domain. Each plate included a positive and negative controls in duplicate wells. Crebtide (2.5 μL) was then added to each well in duplicate to reach a final concentration of 50 nM. If the full-length kinase was used, the plates were incubated for 45 min at room temperature before proceeding further. ATP (2.5 μL) was added to each well to reach a final concentration of 1 μM for the kinase domain and 3 μM for the full-length.
After the addition of ATP, the plates were incubated for 45 min at room temperature. During the incubation, an EDTA solution (40 mM) and anti-Crebtide ([…]) were prepared. Additionally, a detection buffer stock solution was diluted ten fold before use.
After the incubation, the anti-Crebtide (5 μL) and EDTA (5 μL) were added to each well to reach their final concentrations of […] and 10 mM, respectively. The plates were allowed to develop at room temperature for 45 min. The plates were then read at 665 nm and 615 nm using Perkin Elmer Lance machine.
The biological results of inhibition of the kinase domain protein of RC kinase are summarized in Tables 2 and 3, wherein A represents at least 50% inhibition of the RC kinase activity at 1 μM; B represents no greater than 50% but at least 20% inhibition of the RC kinase activity at 1 μM; C represents no greater than 20% but at least 5% inhibition of the RC kinase activity at 1 μM; and D represents no greater than 5% inhibition of the RC kinase activity at 1 μM.
(TR-FRET usually uses a lanthanide donor and a delayed reading to cut background.)

The term melting point denotes the temperature, or range, at which the solid turns liquid. `N#Cc1c(Nc2cccc(Cl)c2)n[nH]c1NCc1ccc(Oc2ccc(C(F)(F)F)cn2)cc1` [Compound C2] gave a melting point of 62 to 72 °C. Also, the “Activity (inhibition of the RC kinase activity at 1 μM)” value in series [1] is “B (no greater than 50% but at least 20% inhibition of the RC kinase activity at 1 μM)”. For orientation: inhibition means how much of the control response was suppressed. Lower therefore signals little suppression. As to `Cn1nc(CSc2ccccc2)c(CNc2[nH]nc(Nc3cccc(Cl)c3)c2C#N)c1Cl` [Compound C3], the melting point fell in the range of 100 to 104 °C. For the same molecule, the inhibition at 1 µM in series [1] fell in the range of 5 to 20%. `N#Cc1c(Nc2cccc(Cl)c2)n[nH]c1NCc1ccc(Cl)cc1Cl` [Compound C19] came in with a melting point of 171 to 174 °C. The molecule also returned an inhibition at 1 µM in series [1] of 5 to 20%. Turning to `N#Cc1c(Nc2cccc(Cl)c2)n[nH]c1NCc1ccc(Cl)cc1O` [Compound C24], the melting point lay in the range of 172 to 180 °C. Also, the inhibition at 1 µM in series [1] was in the range of 5 to 20%.

Turning to `COc1ccc(CNc2[nH]nc(Nc3cccc(Cl)c3)c2C#N)cc1F` [Compound C27], the melting point fell in the range of 97 to 105 °C. The inhibition at 1 µM in series [1] fell in the range of 5 to 20%. The corresponding values for `N#Cc1c(Nc2cccc(Cl)c2)n[nH]c1NCc1ccc(O)cc1` [Compound C31, 3-((3-chlorophenyl)amino)-5-((4-hydroxybenzyl)amino)-1H-pyrazole-4-carbonitrile] are 205 to 208 °C and at most 5%. On to `N#Cc1c(Nc2cccc(Cl)c2)n[nH]c1NCc1ccc(Oc2ccc(C(F)(F)F)cn2)cc1` [Compound C32, 3-((3-chlorophenyl)amino)-5-((4-((5-(trifluoromethyl)pyridin-2-yl)oxy)benzyl)amino)-1H-pyrazole-4-carbonitrile], for which the melting point was in the range of 184 to 194 °C. The “Activity (inhibition of the RC kinase activity at 1 μM)” value in series [1] is “C (no greater than 20% but at least 5% inhibition of the RC kinase activity at 1 μM)”. Take `N#Cc1c(Nc2cccnc2)n[nH]c1NCc1ccc(O)cc1` [Compound C33, 5-((4-hydroxybenzyl)amino)-3-(pyridin-3-ylamino)-1H-pyrazole-4-carbonitrile]: the melting point is 216 to 222 °C. Further, the inhibition at 1 µM in series [1] lay in the range of 20 to 50%.

Take `NC(=O)c1c(Nc2cccc(Cl)c2)n[nH]c1NCc1ccc(O)cc1` [Compound D1, 3-((3-chlorophenyl)amino)-5-((4-hydroxybenzyl)amino)-1H-pyrazole-4-carboxamide]: the melting point lay in the range of 196 to 200 °C. This molecule also gave an inhibition at 1 µM in series [1] of at least 50%. In the same order, the values of `NC(=O)c1c(Nc2ccccc2)n[nH]c1NCc1ccc(O)cc1` [Compound D2] are 214 to 216 °C and 20 to 50%.

In series [1], `Cc1cc(CNc2[nH]nc(Nc3cccc(Cl)c3)c2C(N)=O)cc(C)c1O` [Compound D8] displayed an inhibition at 1 µM of 20 to 50%. Take `NC(=O)c1c(Nc2cccc(Cl)c2)n[nH]c1NCc1ccc(Oc2ncccn2)cc1` [Compound D11, 3-((3-chlorophenyl)amino)-5-((4-(pyrimidin-2-yloxy)benzyl)amino)-1H-pyrazole-4-carboxamide]: the “Activity (inhibition of the RC kinase activity at 1 μM)” value in series [1] is given as “A (at least 50% inhibition of the RC kinase activity at 1 μM)”. Regarding `NC(=O)c1c(Nc2cccc(Cl)c2)n[nH]c1NCc1cccn1S(=O)(=O)c1ccccc1` [Compound D18, 3-((3-chlorophenyl)amino)-5-(((1-(phenylsulfonyl)-1H-pyrrol-2-yl)methyl)amino)-1H-pyrazole-4-carboxamide], in series [1], the inhibition at 1 µM fell in the range of 20 to 50%. Still for that read-out and setting: next, `NC(=O)c1c(Nc2cccc(Cl)c2)n[nH]c1NCc1c[nH]c2c(F)c(F)c(F)c(F)c12` [Compound D22, 3-((3-chlorophenyl)amino)-5-(((4,5,6,7-tetrafluoro-1H-indol-3-yl)methyl)amino)-1H-pyrazole-4-carboxamide]: at most 5%. Take `NC(=O)c1c(Nc2cccc(Cl)c2)n[nH]c1NCc1ccc(Oc2ncccn2)cc1` [Compound D32, 3-((3-chlorophenyl)amino)-5-((4-(pyrimidin-2-yloxy)benzyl)amino)-1H-pyrazole-4-carboxamide]: the melting point lay within 193 to 199 °C. Besides, the “Activity (inhibition of the RC kinase activity at 1 μM)” value in series [1] was “B (no greater than 50% but at least 20% inhibition of the RC kinase activity at 1 μM)”. Consider `NC(=O)c1c(Nc2cccc(Cl)c2)n[nH]c1NCc1ccc(Oc2ccc(C(F)(F)F)cn2)cc1` [Compound D33, 3-((3-chlorophenyl)amino)-5-((4-((5-(trifluoromethyl)pyridin-2-yl)oxy)benzyl)amino)-1H-pyrazole-4-carboxamide], for which the melting point lay within 205 to 211 °C. This molecule showed an inhibition at 1 µM in series [1] of 5 to 20%.

`NC(=O)c1c(Nc2cccnc2)n[nH]c1NCc1cccc(O)c1` [Compound D38, 5-((3-hydroxybenzyl)amino)-3-(pyridin-3-ylamino)-1H-pyrazole-4-carboxamide] came in with a melting point of 208 to 212 °C. Moreover, the inhibition at 1 µM in series [1] is at least 50%. The corresponding values for `COc1cc(CNc2[nH]nc(Nc3cccnc3)c2C(N)=O)ccc1F` [Compound D40, 5-((4-fluoro-3-methoxybenzyl)amino)-3-(pyridin-3-ylamino)-1H-pyrazole-4-carboxamide] are 226 to 229 °C and 20 to 50%. For the molecule `COc1cc(OC)c(OC)cc1CNc1[nH]nc(Nc2cccc(Cl)c2)c1C(N)=O` [Compound D58], the inhibition at 1 µM in series [1] fell in the range of 5 to 20%. Turning to `NC(=O)c1c(Nc2cccc(Cl)c2)n[nH]c1NCc1ccc([N+](=O)[O-])cc1` [Compound D74, 3-((3-chlorophenyl)amino)-5-((4-nitrobenzyl)amino)-1H-pyrazole-4-carboxamide], the inhibition at 1 µM in series [1] is 5 to 20%. In the case of `Cc1cc(C)cc(CNc2[nH]nc(Nc3cccc(Cl)c3)c2C(N)=O)c1` [Compound D78], the inhibition at 1 µM in series [1] fell in the range of 5 to 20%. In series [1], `NC(=O)c1c(Nc2ccc(-n3cccn3)cc2)n[nH]c1NCc1ccc(O)cc1` [Compound D79, 3-((4-(1H-pyrazol-1-yl)phenyl)amino)-5-((4-hydroxybenzyl)amino)-1H-pyrazole-4-carboxamide] showed an inhibition at 1 µM of at least 50%. The molecule `NC(=O)c1c(Nc2ccc(Cc3ccccc3)cc2)n[nH]c1NCc1ccc(O)cc1` [Compound D83, 3-((4-benzylphenyl)amino)-5-((4-hydroxybenzyl)amino)-1H-pyrazole-4-carboxamide] gave an inhibition at 1 µM in series [1] of at least 50%. On the same count and under the same terms, next, `NC(=O)c1c(Nc2ccc(-c3cc[nH]n3)cc2)n[nH]c1NCc1ccc(O)cc1` [Compound D84]: at least 50%; `NC(=O)c1c(Nc2cccc(Cl)c2)n[nH]c1NCc1ccc(O)nc1` [Compound D86]: at most 5%. The same measure, in the same setting: next, `COc1ncc(CNc2[nH]nc(Nc3cccc(Cl)c3)c2C(N)=O)cn1` [Compound D87]: at most 5%; `CC1CCN(C2CCN(c3n[nH]c(NCc4ccc(O)cc4)c3C(N)=O)CC2)CC1` [Compound D88]: 20 to 50%; `COc1ccc(C(=O)Nc2ccc(Nc3n[nH]c(NCc4ccc(O)cc4)c3C(N)=O)cc2)cc1OC` [Compound D129]: at least 50%. Still for that read-out and setting: next, `NC(=O)c1c(Nc2ccc(NC(=O)c3cccc(Cl)c3)cc2)n[nH]c1NCc1ccc(O)cc1` [Compound D130]: at least 50%. Take `NC(=O)c1c(NC2CCCCC2)n[nH]c1NCc1ccc(O)cc1` [Compound D133, 3-(cyclohexylamino)-5-((4-hydroxybenzyl)amino)-1H-pyrazole-4-carboxamide]: in series [1], the inhibition at 1 µM lay in the range of 20 to 50%.

For `NC(=O)c1c(Nc2ccc(CN3CCOCC3)cc2)n[nH]c1NCc1ccc(O)cc1` [Compound D134, 5-((4-hydroxybenzyl)amino)-3-((4-(morpholinomethyl)phenyl)amino)-1H-pyrazole-4-carboxamide], the inhibition at 1 µM in series [1] is at least 50%. On the same count and under the same terms, next, `Cc1ccc(S(=O)(=O)Nc2ccc(Nc3n[nH]c(NCc4ccc(O)cc4)c3C(N)=O)cc2)cc1` [Compound D136, 5-((4-hydroxybenzyl)amino)-3-((4-(4-methylphenylsulfonamido)phenyl)amino)-1H-pyrazole-4-carboxamide]: 20 to 50%. Regarding `COc1cccc(C(=O)Nc2ccc(Nc3n[nH]c(NCc4ccc(O)cc4)c3C(N)=O)cc2)c1` [Compound D145], in series [1], the “Activity (inhibition of the RC kinase activity at 1 μM)” value is “A (at least 50% inhibition of the RC kinase activity at 1 μM)”.

As to `NC(=O)c1c(Nc2ccc(NC(=O)c3ccccc3OC(F)(F)F)cc2)n[nH]c1NCc1ccc(O)cc1` [Compound D147], the “Activity (inhibition of the RC kinase activity at 1 μM)” value in series [1] is “A (at least 50% inhibition of the RC kinase activity at 1 μM)”. Regarding `NC(=O)c1c(Nc2cccc(Cl)c2)n[nH]c1NCc1c[nH]nc1-c1ccc(F)cc1` [Compound D166], the inhibition at 1 µM in series [1] is at most 5%.
